Measurements: patent US20060205641A1, “[…]4 polypeptides and […]4 polynucleotides” (SmithKline Beecham plc, priority 1999, published 2006)

Tests used:
Format in all cases: cell-based
hVR4 = biological target: T1, hVR4 (Homo sapiens, UniProt Q9HBA0); experiment: FLIPR intracellular calcium assay, HEK293 cells transiently expressing hVR4 ([…]4); settings: for pEC50 hVR4: HEK293 cells transiently expressing hVR4, Fluo-3 calcium, FLIPR, mean ± s.e.mean, n = 3-5, IA = inactive; for effect on intracellular calcium in HEK293-hVR4 cells: result in words
T1 construct: expressed in transfected cells; host or cells: HEK293 (transient expression)
Experimental: HEK293 cells transiently expressing hVR1 or hVR4 were seeded into FLIPR96 plates at 25,000 cells/well and cultured overnight. The cells were then loaded in medium containing 4 microM Fluo-3 for 2 hrs, at room temperature, in the dark. The cell plates were then washed 4× with Tyrode containing 1.5 mM calcium and 0.2% BSA. Agonist and antagonist plates were prepared in the same buffer. Cells were preincubated with either antagonist or buffer at room temperature for 30 mins. Agonists additions and calcium measurements were made in the FLIPR (Smart et al., (2000) Br J. Pharmacol. 129, 227-230).

[1] = test system: HEK293 cells transfected with empty vector; experiment: FLIPR intracellular calcium assay, HEK293 cells transfected with empty vector; settings: result in words
wild type HEK293 cells = experiment: FLIPR intracellular calcium assay, wild type HEK293 cells; settings: result in words
hVR1 = biological target: T2, hVR1 (Homo sapiens, UniProt Q8NER1); settings: for pEC50 hVR1: HEK293 cells transiently expressing hVR1, Fluo-3 calcium, FLIPR, mean ± s.e.mean, n = 3-5, IA = inactive; for activity at VR1: result in words
T2 construct: expressed in transfected cells; host or cells: HEK293 (transient expression)
T2 sequence (Q8NER1 whole entry): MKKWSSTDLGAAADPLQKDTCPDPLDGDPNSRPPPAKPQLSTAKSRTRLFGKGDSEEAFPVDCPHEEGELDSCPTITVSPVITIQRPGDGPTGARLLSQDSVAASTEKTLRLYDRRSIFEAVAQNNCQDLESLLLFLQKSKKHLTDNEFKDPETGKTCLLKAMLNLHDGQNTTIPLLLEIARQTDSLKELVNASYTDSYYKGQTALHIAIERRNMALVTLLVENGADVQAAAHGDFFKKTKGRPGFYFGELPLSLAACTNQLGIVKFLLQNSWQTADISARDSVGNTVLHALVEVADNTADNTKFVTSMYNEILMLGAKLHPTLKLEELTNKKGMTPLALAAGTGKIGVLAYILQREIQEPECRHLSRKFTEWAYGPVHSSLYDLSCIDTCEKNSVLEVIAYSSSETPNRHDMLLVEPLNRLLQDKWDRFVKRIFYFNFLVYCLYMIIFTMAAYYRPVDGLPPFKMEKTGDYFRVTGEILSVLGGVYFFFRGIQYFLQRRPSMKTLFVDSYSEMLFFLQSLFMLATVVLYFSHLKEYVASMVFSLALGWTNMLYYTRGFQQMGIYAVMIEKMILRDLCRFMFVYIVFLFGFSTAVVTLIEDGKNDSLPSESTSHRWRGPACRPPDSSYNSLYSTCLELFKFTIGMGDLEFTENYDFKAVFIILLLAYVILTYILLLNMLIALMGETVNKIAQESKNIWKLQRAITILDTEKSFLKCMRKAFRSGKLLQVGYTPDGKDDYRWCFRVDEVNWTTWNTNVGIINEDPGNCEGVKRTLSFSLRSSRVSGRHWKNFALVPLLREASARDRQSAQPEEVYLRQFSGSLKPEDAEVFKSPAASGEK

T1 sequence (Q9HBA0 whole entry): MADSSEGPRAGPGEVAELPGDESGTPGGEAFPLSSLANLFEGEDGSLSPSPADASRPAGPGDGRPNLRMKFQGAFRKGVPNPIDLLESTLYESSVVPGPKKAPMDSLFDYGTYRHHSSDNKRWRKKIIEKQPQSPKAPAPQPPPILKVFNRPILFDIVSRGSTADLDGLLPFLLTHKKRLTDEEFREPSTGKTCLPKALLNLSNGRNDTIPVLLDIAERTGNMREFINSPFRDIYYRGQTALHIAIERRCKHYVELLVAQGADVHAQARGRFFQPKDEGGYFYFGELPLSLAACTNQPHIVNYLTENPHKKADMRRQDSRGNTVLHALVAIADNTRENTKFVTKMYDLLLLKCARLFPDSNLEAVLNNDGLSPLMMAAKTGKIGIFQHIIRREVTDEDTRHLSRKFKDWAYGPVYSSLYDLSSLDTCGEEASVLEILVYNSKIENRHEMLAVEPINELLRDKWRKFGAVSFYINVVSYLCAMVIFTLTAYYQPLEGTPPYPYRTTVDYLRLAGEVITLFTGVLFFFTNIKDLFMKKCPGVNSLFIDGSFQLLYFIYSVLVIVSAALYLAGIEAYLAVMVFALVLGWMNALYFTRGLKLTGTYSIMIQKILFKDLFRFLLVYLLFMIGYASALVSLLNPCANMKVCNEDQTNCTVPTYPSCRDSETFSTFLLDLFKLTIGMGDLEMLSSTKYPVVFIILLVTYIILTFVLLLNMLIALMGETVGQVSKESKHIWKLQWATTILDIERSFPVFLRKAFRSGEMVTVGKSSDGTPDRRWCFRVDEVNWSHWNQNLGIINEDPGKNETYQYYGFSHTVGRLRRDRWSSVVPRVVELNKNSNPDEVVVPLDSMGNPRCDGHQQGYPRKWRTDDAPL

CCCCCCCCCCCCCC(=O)O[C@@H]1[C@@H](C)[C@@]2(O)[C@@H](C=C(CO)C[C@]3(O)C(=O)C(C)=C[C@@H]23)[C@@H]2C(C)(C)[C@]12OC(C)=O [PMA, phorbol 12-myristate 13-acetate]
pEC50 hVR4 (hVR4): 6.64 ± 0.06
effect on intracellular calcium in HEK293-hVR4 cells (hVR4): increased intracellular calcium
effect on intracellular calcium in cells transfected with empty vector [1]: without effect
effect on intracellular calcium in wild type HEK293 cells (wild type HEK293 cells): without effect
pEC50 hVR1 (hVR1): 7.86 ± 0.06
Emax (hVR1; at VR1, compared to capsaicin and RTX): 0.46
activity at VR1 (hVR1): partial agonist

C=C(C)[C@]12C[C@@H](C)[C@@]34O[C@](Cc5ccccc5)(O[C@@H]1[C@@H]3C=C(COC(=O)Cc1ccc(O)c(OC)c1)C[C@]1(O)C(=O)C(C)=C[C@@H]41)O2 [RTX]
pEC50 hVR1 (hVR1): 8.93 ± 0.20

CCCCCCCCCC(=O)O[C@@H]1[C@@H](C)[C@@]2(O)[C@@H](C=C(CO)C[C@@]3(O)C(=O)C(C)=C[C@@H]23)[C@@H]2C(C)(C)[C@]12OC(=O)CCCCCCCCC [4αPDD, 4α-phorbol-12,13-didecanoate]
pEC50 hVR4 (hVR4): 5.73 ± 0.06
selectivity (conclusion) (hVR4; VR4 versus VR1, result in words): In conclusion, 4αPDD acts as a VR4 selective agonist.
effect on intracellular calcium in HEK293-hVR4 cells (hVR4): increased intracellular calcium
effect on intracellular calcium in cells transfected with empty vector [1]: without effect
effect on intracellular calcium in wild type HEK293 cells (wild type HEK293 cells): without effect
activity at VR1 (hVR1): inactive
